Consider 15 compounds from US5602161A, “Tetrazolylphenyl pivalate derivatives and medicinal composition containing the same as effective component” (Wakamoto Pharmaceutical Co., Ltd., priority 1994, dated 1997).

The target of one data set is T1, human sputum elastase (Homo sapiens, UniProt P08246).
T1 sequence (P08246 30-247 limits assumed): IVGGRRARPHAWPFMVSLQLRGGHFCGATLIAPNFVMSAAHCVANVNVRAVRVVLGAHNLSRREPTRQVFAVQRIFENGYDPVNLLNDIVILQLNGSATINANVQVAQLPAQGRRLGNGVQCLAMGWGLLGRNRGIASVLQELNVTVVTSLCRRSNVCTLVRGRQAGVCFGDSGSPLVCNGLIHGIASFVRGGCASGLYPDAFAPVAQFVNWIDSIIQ
Description: Inhibitory effect on elastase (human sputum), spectrophotometric assay with MeOSuc-Ala-Ala-Pro-Val-pNA. It counts as biochemical.

Data set [1] addresses T2, human neutrophil elastase (Homo sapiens, UniProt P08246).
T2 construct: using elastase from human neutrophil or human sputum; from tissue; host or cells: human neutrophil
T2 sequence (P08246 30-247 limits assumed): T1 sequence (P08246 30-247 limits assumed)
Description: Inhibitory effect on elastase (human neutrophil), spectrophotometric assay with MeOSuc-Ala-Ala-Pro-Val-pNA. The class given is biochemical.
Description: Namely, it is a spectrophotometric assay using the synthesized substrate, methoxysuccinyl-alanyl-alanyl- prolyl-valyl-p-nitroanilide(MeOSuc-Ala-Ala-Pro-Val-pNA, Cambridge research biochemical Co.) which has high specificity on neutrophil elastase.
20 μl of a test compound of various concentrations and 20 μl of enzyme solution (13 unit/ml) were added to 400 μl of 0.1M sodium phosphate buffer (pH 8.0). The mixture was incubated at 37° C. for 5 min, and then 20 μl of the substrate was added to the mixture in a final volume of 460 μl. The reaction was conducted by incubating thus obtained mixture at 37° C. for 20 min. The reaction was stopped by the addition of 300 μl of 20% acetic acid into the reaction mixture, and then p-nitroanilide released was measured by the spectrophotometrically at 405 nm.
Inhibition percents of the test compounds were calculated by the following equation:
Inhibition %=[1-(OD 405 nm value of the testing sample-background)/(OD 405 nm value of the control-background)]×100

In data set [2] the test system is endotoxin induced acute lung injury in mice. Description: Inhibitory effect on endotoxin induced acute lung injury in mice. It counts as in vivo, ICR mice. The note with it: Mus musculus, oral 10 mg/Kg at 1.5 hr before and 4.5~5.0 hr after LPS (25 μg/site), BAL fluid at 19~20 hrs. The method, then:
ICR mice (25~30 g, .male., n=7) were used.
The test compounds were suspended at 0.1% in 0.5% sodium carboxymethylcellulose-saline.
Oral administration of the test compounds were given at 10 mg/Kg at 1.5 hr before an intratracheal instillation of LPS (E.coli, 055:B5, Difico, 25 μg/site). After sodium pentobarbital anesthetized, LPS dissolved in sterile saline was instilled intratracheally via a ventral neck in the throat incisionusing with a 250 μl syringe attached to a 27-gauge needle.
The throat incisions were sutured with surgical threads, and PI-compound was administered with the same mannner as described above 4.5~5.0 hr after LPS instillation.
Up 19~20 hrs after LPS instillation, animals were euthanized by an i.p. pentobarbital overdose, each animal trachea was reexposed and the ventral neck region was small incised.
A 10 cm length of small-diameter (O.D=0.5 mm) polyethylene catheter inserted and held in place using surgical suture. The lung was then lavaged with a single 500 μl sterile saline using a 1 ml syringe by gently expanding the lung and then withdrawing the saline. The same operation was repeated 6 times, yielding a final volume of 3 ml bronchoalveolar lavage (BAL) fluid from each animal.
Evaluation of testing compounds were expressed as inhibitory percent of hemorrhage and leukocyte infiltration in the lung of each animals.
Estimation for hemorrhage:
Red blood cells were bursted with adding 50 μl KCN solution (0.33 %) per 1 ml of BAL fluid, and then the amount of blood in each BAL fluid samples were calculated from a hemoglobin standard curve.
Estimation of leukocyte infiltrations:
(§1) BAL fluid was diluted to 100 fold with a balanced electrolyte solution and KCN solution (0.33%) was added to the diluted BAL fluid for lysis of contaminating red blood cells.
Leukocyte number was determined from the average of the three times count using a particle counter.
The inhibitory effect of testing compounds were calculated from thefollowing equation:
Inhibitory percent=[1-(The average value of the test compound group)/(The
average value of the control group)]×100
The control animals were dosed orally with the same amount of the vehicle before and after intratracheal instillation of LPS and were operated with the same manner as the animals tested with the test compounds.

In data set [3] the test system is pancreatic elastase induced acute lung injury in mice. In words: Inhibitory effect on pancreatic elastase induced acute lung injury in mice. The note with it: oral 10 mg/Kg at 3.5 hr before and 4.5~5.0 hr after P. elastase (5 μg/site); BAL fluid at 20 hrs. It counts as in vivo, ICR mice. Here is the method: ICR mice (25~30 g, .male., n=7~8) were used.
The compound to be evaluated was suspended in 0.5% sodium carboxymethylcellulose-saline.
Oral administration of the test compound was given at 10 mg/Kg at 3. 5 hr before an intratacheal instillation of P. elastase (5 μg/site). After sodium pentobarbital anesthetized, sterile saline containing P. elastase was instilled intratracheally via ventral neck in the throat incisions using a 250 μl syringe attached to a 27-gauge needle.
The throat incisions were closed with surgical suture, and test compounds were administered with the same manner as described above at 4.5~5.0hr after an intratracheal instillation of P. elastase.
At 20 hrs after an intratracheal instillation of P. elastase, animalz were euthanized by an i.p. pentobarbital overdose, each animal trachea was reexposed and the ventral nech region was small incised. A 10 cm length of small-diameter (O.D=0.5 mm) polyethylene catheter inserted and held in place using surgical suture. The lung were then lavaged with 500 μl sterile saline using a 1 ml syringe by gently expanding the lung and then withdrawing the saline.
The same operation was repeated 6 times, yielding in a final volume of 3 ml bronchoalveolar lavage (BAL) fluid from each animal.
The test compounds were evaluated as a inhabitory percent of hemorrhage and leukocyte number in the BAL fluid from each animal.
Operation for hemorrhage and leukocyte number assay;
Red blood cells were bursted with adding 50 μl KCN solution (0.33%) per 1 ml BAL fluid. The amount of blood in each BAL fluid sample was calculated from a hemoglobin standard curve.
as §1
Leukocyte number was determined by the average of the three times count using a particle counter.
Inhibitory effects of the test compounds on hemorrhage and leukocyte infiltration were calculated from the following equation: Inhibitory percent=[1-(The average value of test compound
group)/(The average value of the control group)]×100
The control animals were dosed orally with the same amount of vehicle before and after intratracheal instillation of P. elastase, and it were treated with the same manner as the test compound group.

Data set [4] can be described thus: Cytotoxicity test (MTT, three days). It counts as cell-based. The note with it: mouse, l1210 cells, read-out: Survival rate; for viability at 72 h, 1 µM: final concentration 1 μM; for viability at 72 h, 5 µM: final concentration 5 μM; for viability at 72 h, 10 µM: final concentration 10 μM. The method, then:
L1210 (lymphocytic leukemia, mouse) cells in a logarithmic growth phase were collected and washed twice with HBSS (Hanks' balanced salt solution). The L1210 cells were resuspended at 5.0×10^4 cells/ml in RPMI 1640 medium containing 10% heat-inactivated fetal bovine serum. The cell suspension was dispensed in 100 μl aliquots into 96 well multi-plate. Each of compounds to be tested was dissolved in dimethylsulfoxide at a concentration of 10 mM. The solutions were stepwise diluted with RPMI 1640 solution containing 10% heat-inactivated fetal bovine serum. Each of the diluted samples was dispensed in an amount of 10 μl well in the 96 well multi-plate containing L1210 cells and incubated for three days at 37° C. in humidified 5% CO2 -air mixture. To each of the wells, 10 μl of MTT (3-(4,5-dimethylthiazol-2-yl)-2,5-diphenyltetrazolium bromide)(5 mg/ml in phosphate buffer free of Ca^2+ and Mg^2+) was added. Cultivation was continued for additional five hours at 37° C. in humidified 5% CO2 -air mixture. To each of the wells, 100 μl of 20% SDS (sodium dodecyl sulfate) in 0.01N HCl was added to solubilize the MTT formazan.
Absorbance was measured at 630 nm as a reference wavelength and 570 nm as a measuring wavelength using Corona Electric MTP22 Microplate Photometer. The measurement was conducted three times for each of the samples to obtain an average value and a standard deviation. Survival rate was calculated by the following equation:
Survival rate (5)=[(absorbance of test sample)/(absobance of […]

Setting [5] is: S: human sputum elastase, pH 8.0, 37° C., read-out: IC50.
[6] abbreviates: N: human neutrophil elastase, pH 8.0, 37° C., read-out: IC50.
Setting [7] is: Leukocyte, read-out: Inhibitory percent of leukocyte infiltration.
[8] abbreviates: read-out: Inhibitory percent of hemorrhage.

Like-named read-outs stand apart in the source and are kept apart here.

Consider `COc1ccc(COCCCCn2nnc(-c3ccc(OC(=O)C(C)(C)C)cc3)n2)cc1` [Example 42, 4-[2-[4-(4-Methoxybenzyloxy)butyl]tetrazol-5-yl]phenyl pivalate], for which the values for the IC50 (on human sputum elastase (setting [5]); in data set [1] (setting [6])) were 22 nM and 19 nM, respectively. For the same compound, the inhibition in vivo at 10 mg/kg was 64.1% in data set [2] (setting [7]) and 39.4% in data set [2] (setting [8]).
For the compound `CC(C)(C)C(=O)Oc1ccc(-c2nnn(C(C(=O)OCc3ccccc3)c3ccccc3)n2)cc1` (stereo not drawn) [Example 51, 4-[2-[α-(Benzyloxycarbonyl)benzyl)tetrazol-5-yl]phenyl pivalate], at human sputum elastase (setting [5]), the IC50 was 38 nM. For the same compound, the inhibition in vivo at 10 mg/kg turned out to be 20.5% in data set [2] (setting [7]) and 57% in data set [2] (setting [8]).
As to `CC(=O)O.CC(C)(C)C(=O)Oc1ccc(-c2nnn(CCNC(=O)c3ccc(NC(=N)N)cc3)n2)cc1` [Example 95, 4-[2-[2-(4-Guanidinobenzoylamino)ethyl]tetrazol-5-yl]phenyl pivalate Acetate], in data set [3], the “Inhibitory percent of hemorrhage” value was 15.2% and the “Inhibitory percent of leukocyte infiltration” value was 30.2%. In data set [4], the viability at 72 h, 1 µM worked out at 103%; the viability at 72 h, 5 µM amounted to 109%; the viability at 72 h, 10 µM was 107%. The IC50 against human sputum elastase amounted to 250 nM. Moreover, the inhibition in vivo at 10 mg/kg in data set [2] (setting [7]) came to 79.6%. In addition, the inhibition in vivo at 10 mg/kg in data set [2] (setting [8]) was 62.3%.
Compound `CC(C)(C)C(=O)Oc1ccc(-c2nnn(CCOC(=O)c3ccc(NC(=N)N)cc3)n2)cc1` [Example 94, 4-[2-[2-(4-Guanidinobenzoyloxy)ethyl]tetrazol-5-yl]phenyl pivalate Acetate] returned an IC50 in data set [1] of 96 nM. For the same compound, the inhibition in vivo at 10 mg/kg stood at 51.8% in data set [2] (setting [7]) and 36.6% in data set [2] (setting [8]).
Turning to `COc1ccc(COc2ccc(Cn3nnc(-c4ccc(OC(=O)C(C)(C)C)cc4)n3)cc2)cc1` [Example 18, 4-[2-[4-(4-Methoxybenzyloxy)benzyl]tetrazol-5-yl]phenyl pivalate], the figures for the IC50 (on human sputum elastase (setting [5]); in data set [1] (setting [6])) were 160 nM and 17 nM, respectively.
Take `CC(C)(C)C(=O)Oc1ccc(-c2nnn(Cc3ccccc3C(=O)NCC(=O)O)n2)cc1` [Example 63, N-[2-[5-(4-Pivaloyloxyphenyl)tetrazol-2-ylmethyl]benzoyl]glycine]: in data set [4], the viability at 72 h, 1 µM turned out to be 105%; the viability at 72 h, 5 µM is 103%; the viability at 72 h, 10 µM was 100%. Also, in data set [1] (setting [6]), the IC50 turned out to be 300 nM.
On to `CN(C)c1ccc(Cn2nnc(-c3ccc(OC(=O)C(C)(C)C)c(N(C)C)c3)n2)cc1` [Example 7, 2-Dimethylamino-4-[2-[4-(dimethylamino)benzyl]tetrazol-5-yl]phenyl pivalate], for which, in data set [3], the “Inhibitory percent of hemorrhage” value is 23.6% and the “Inhibitory percent of leukocyte infiltration” value came out at 26.1%. For the same compound, in data set [4], the viability at 72 h, 1 µM stood at 97%; the viability at 72 h, 5 µM stood at 96.1%; the viability at 72 h, 10 µM was 88.3%. Moreover, the IC50 at human sputum elastase (setting [5]) is 540 nM. In addition, the inhibition in vivo at 10 mg/kg in data set [2] (setting [7]) turned out to be 82.1%. Also, in data set [2] (setting [8]), the inhibition in vivo at 10 mg/kg was found to be 88.5%.
In the case of `COc1ccc(COCCCCn2nnc(-c3cccc(OC(=O)C(C)(C)C)c3)n2)cc1` [Example 23, 3-[2-[4-(4-Methoxybenzyloxy)butyl]tetrazol-5-yl]phenyl pivalate], in data set [4], the viability at 72 h, 1 µM amounted to 104%; the viability at 72 h, 5 µM was found to be 102%; the viability at 72 h, 10 µM came out at 94.3%. In addition, in data set [1] (setting [6]), the IC50 came out at 22 nM.
Regarding `CC(C)(C)C(=O)Oc1ccc(-c2nnn(CCCCCO)n2)cc1` [Example 74, 4-[2-(5-Hydroxypentyl)tetrazol-5-yl]phenyl pivalate], the IC50 in data set [1] (setting [6]) came to 98 nM.
`CC(C)(C)C(=O)Oc1ccc(-c2nnn(Cc3ccc(C(=O)N4CCC[C@H]4C(=O)O)cc3)n2)cc1` [Example 59, N-[4-[5-(4-pivaloyloxyphenyl)tetrazol-2-ylmethyl]benzoyl]-L-Proline]: at human sputum elastase (setting [5]), the IC50 is 40 nM. Besides, the figures for the inhibition in vivo at 10 mg/kg in data set [2] (setting [7]) and in data set [2] (setting [8]) were 58.8% and 81.5%, respectively.
For the compound `COc1ccc(CCCCn2nnc(-c3ccc(OC(=O)C(C)(C)C)cc3)n2)cc1` [Example 21, 4-[2-[4-(4-Methoxyphenyl)butyl]tetrazol-5-yl]phenyl pivalate], the IC50 in data set [1] (setting [6]) is 62 nM.
As to `CN(C)Cc1ccc(Cn2nnc(-c3ccc(OC(=O)C(C)(C)C)cc3)n2)cc1` [Example 47, 4-[2-[4-(Dimethylaminomethyl)benzyl]tetrazol-5-yl]phenyl pivalate], on human sputum elastase (setting [5]), the IC50 was found to be 140 nM. Also, the values for the inhibition in vivo at 10 mg/kg in data set [2] (setting [7]) and in data set [2] (setting [8]) were 61.5% and 48.6%, respectively.
For the compound `COC(=O)c1ccccc1Cn1nnc(-c2ccc(OC(=O)C(C)(C)C)cc2)n1` [Example 24, 4-[2-(2-Methoxycarbonylbenzyl)tetrazol-5-yl]phenyl pivalate], the IC50 in data set [1] (setting [6]) came out at 100 nM.
The same measure, in the same setting: the result for `CC(C)(C)C(=O)Oc1ccc(-c2nnn(CCc3ccccc3)n2)cc1` [Example 14, 4-[2-(2-Phenylethyl)tetrazol-5-yl]phenyl pivalate] reads 76 nM.
Turning to `CC(C)(C)C(=O)Oc1ccc(-c2nnn(Cc3ccncc3)n2)cc1` [Example 35, 4-[2-(4-Pyridylmethyl)tetrazol-5-yl]phenyl pivalate], in data set [3], the “Inhibitory percent of hemorrhage” value stood at 71.5% and the “Inhibitory percent of leukocyte infiltration” value was 45.1%. Besides, in data set [4], the viability at 72 h, 1 µM amounted to 95.2%; the viability at 72 h, 5 µM amounted to 110%; the viability at 72 h, 10 µM was 99.1%. In addition, the IC50 at human sputum elastase (setting [5]) was found to be 14 nM.
